Experimental data reported in patent publication US7479484B2, “Peptides and peptidomimetics having immune-modulating, anti-inflammatory, and anti-viral activity” (priority 2003, dated 2009).
≈ marks a conversion by molar mass, not a printed value. Where “and” joins values, the source holds several entries; their conditions need not be identical. Identical values can stand only once. Counter-ions that a name gives are not always drawn. Like-named read-outs stand apart in the source and are kept apart here. Marks after values point to notes of the source that are not given here. Where a SMILES comes first, the peptide text is derived from it. [ ]: non-standard residue; d: D form. dPhe(F5) = N[C@H](Cc1c(F)c(F)c(F)c(F)c1F)C(=O)O; dBpa = N[C@H](Cc1ccc(C(=O)c2ccccc2)cc1)C(=O)O; dCha = N[C@H](CC1CCCCC1)C(=O)O

Experiments:
[1] = test system: passive cutaneous anaphylaxis (PCA); experiment: Passive cutaneous anaphylaxis (PCA) in rats; type: in vivo, Wistar rats; details: rat, IP; for % Inhibition: relative to vehicle control group; for Total PCA Response: sum of scores of 3 animals; for PCA Response 1st Spot / PCA Response 2nd Spot: weal score per animal (N 1-3)
Experimental: CBP501 (SEQ ID NO: 80) was evaluated for anti-allergic activity in a model of passive cutaneous anaphylaxis (PCA) in Wistar rats. CBP501, at doses of 20, 10, and 5 mg/kg, was administered intraperitoneally (IP) 30 minutes before challenge with a mixture of ovalbumin and Evans Blue dye.
CBP501 was dissolved in 0.9% NaCl. CBP501, at 20, 10 and 5 mg/kg, was administered intraperitoneally (IP) 30 min before challenge with a mixture of ovalbumin and Evans Blue dye.
Animals: Male or female Wistar rats were provided by the animal breeding center of MDS Pharma Services-Taiwan Ltd. Space allocation for 6 animals was 45×23×21 cm. All animals were maintained in a hygienic environment in a controlled temperature (21.5-22.5° C.) and humidity (50%-70%) environment, with 12 hour light-dark cycles for at least one week, housed in the MDS Pharma Services-Taiwan Laboratory, prior to being used. All aspects of this work including housing, experimentation and disposal of animals were performed in general accordance with the International Guiding Principles for Biomedical Research Involving Animals (CIOMS Publication No. ISBN 92 90360194, 1985).
Chemicals: Cyproheptadine-HCl (RBI-USA), ethanol absolute (Merck, Germany), distilled water (in-house), Evans Blue (Fluka, Switzerland), and ovalbumin (Sigma-Aldrich, USA) were used.
Method of administration: Five groups of three (3) Wistar-derived male rats weighing 80+/−10 g were passively sensitized 16 hours earlier by intradermal injection of reaginic (IgE) antiovalbumin serum (0.05 ml) on two spots of the dorsal surface. […] Within 30 minutes after administration of CBP501, the animals were challenged intravenously (IV) with a mixture of ovalbumin (1 mg) and Evans Blue dye (5 mg). Animals were sacrificed 30 minutes after challenge.
Results: Two measured weal diameters were averaged for each animal and scored 0 if <0.05 cm, 1 if 0.05-0.2 cm, 2 if 0.2-0.4 cm, 3 if 0.4-0.6 cm, 4 if 0.6-0.8 cm and 5 if >0.8 cm. Maximum possible score for each animal totals 2×5=10. Inhibition of the resulting PCA blue colored weal by 50 percent or more relative to the vehicle control group indicates possible antiallergic activity. Results are shown in Table 1, below, where significant changes are indicated by an asterisk(*).

HIV-1 strain WeJo = experiment: Inhibition of HIV-1 replication in PBMC (extracellular p24); type: cell-based; details: HIV-1 strain WeJo in PBMC
Experimental: (§1) CBP501 was tested for antiviral activity against HIV-1 in peripheral blood mononuclear cells (PBMC) using the clinical pediatric HIV strain WeJo. PBMCs were derived from normal HIV-1-negative donors, and cultured under conditions which promote cell survival and HIV replication. Antiviral activity was measured by detecting the amount of extracellular HIV-1p24 protein in a sample, where a decrease in p24 levels indicated antiviral activity. Cytotoxity was measured by a tetrazolium dye reduction method. Antiviral activity was analyzed for a series of dilutions of a stock solution of 100 μg/ml CBP501. The experiments were performed using serial dilutions of the compound, generating a series of concentrations from 0.3125 to 80 μg/ml CBP501.

[2] = Cytotoxicity in PBMC (tetrazolium dye reduction); type: cell-based; details: human, peripheral blood mononuclear cells (PBMC), highest concentration tested 80 μg/ml, called an estimate, read-out: TC50 (concentration decreasing cell viability by 50%)
Experimental: as §1

[3] = test system: peripheral blood mononuclear cells (PBMC); experiment: Cytotoxicity in PBMC (tetrazolium dye reduction); type: cell-based
Experimental: as §1

HIV-1 strain Ba-L = experiment: Inhibition of HIV-1 replication in human monocyte/macrophages (extracellular p24); type: cell-based; details: HIV-1 strain Ba-L in monocyte/macrophages
Experimental: as §1, with “evaluated” for “tested”, “activity” for “activity against HIV-1”, “monocyte/macrophages” for “peripheral blood mononuclear cells (PBMC)”, “the” for “the clinical pediatric”, “Ba-L. Monocyte/macrophages” for “WeJo. PBMCs”

[4] = Cytotoxicity in monocyte/macrophages (tetrazolium dye reduction); type: cell-based, human; details: human, highest concentration tested 80 μg/ml, called an estimate, read-out: TC50 (concentration decreasing cell viability by 50%)
Experimental: as §1, with “evaluated” for “tested”, “activity” for “activity against HIV-1”, “monocyte/macrophages” for “peripheral blood mononuclear cells (PBMC)”, “the” for “the clinical pediatric”, “Ba-L. Monocyte/macrophages” for “WeJo. PBMCs”

monocyte/macrophages = experiment: as above; type: cell-based, human
Experimental: as §1, with “evaluated” for “tested”, “activity” for “activity against HIV-1”, “monocyte/macrophages” for “peripheral blood mononuclear cells (PBMC)”, “the” for “the clinical pediatric”, “Ba-L. Monocyte/macrophages” for “WeJo. PBMCs”

[5] = test system: adjuvant-induced arthritis; details: rat
[6] = test system: kinases involved in the cell cycle G2 checkpoint, including mitogen activated kinase p38; details: as disclosed in U.S. application Ser. No. 10/347,145; cited from earlier work
14-3-3 protein = details: as disclosed in U.S. application Ser. No. 10/347,145; cited from earlier work
[7] = 5 mg/kg, 30 min before challenge
[8] = 10 mg/kg, 30 min before challenge
[9] = 20 mg/kg, 30 min before challenge
[10] = highest concentration tested 80 μg/ml, called an estimate

CN1CCC(=C2c3ccccc3C=Cc3ccccc32)CC1 [Cyproheptadine, Cyproheptadine-HCl, reference compound]
% Inhibition ([1]; 1 mg/kg, 1 mg/kg): 87* % | % Inhibition ([1]; 1 mg/kg, listed as cyproheptadine-HCl, 1 mg/kg): 87% | Total PCA Response ([1]; 1 mg/kg): 4 | PCA Response 1st Spot ([1]; 1 mg/kg): 0 (0 if <0.05 cm) and 1 (1 if 0.05-0.2 cm) (2×) | PCA Response 2nd Spot ([1]; 1 mg/kg): 0 (0 if <0.05 cm) and 1 (1 if 0.05-0.2 cm) (2×)

N=C(N)NCCC[C@@H](NC(=O)[C@@H](CCCNC(=N)N)NC(=O)[C@@H](CCC(N)=O)NC(=O)[C@@H](CCCNC(=N)N)NC(=O)[C@@H](CCCNC(=N)N)NC(=O)[C@@H](CCCNC(=N)N)NC(=O)[C@@H](CC1CCCCC1)NC(=O)[C@@H](Cc1c(F)c(F)c(F)c(F)c1F)NC(=O)[C@@H](CO)NC(=O)[C@@H](Cc1c[nH]c2ccccc12)NC(=O)[C@@H](CO)NC(=O)[C@H](N)Cc1ccc(C(=O)c2ccccc2)cc1)C(=O)O [CBP501, (d-Bpa)(d-Ser)(d-Trp)(d-Ser)(d-Phe-2,3,4,5,6-F)(d-Cha)(d-Arg)(d-Arg)(d-Arg)(d-Gln)(d-Arg)(d-Arg)] (H-[dBpa][dS][dW][dS][dPhe(F5)][dCha][dR][dR][dR][dQ][dR][dR]-OH)
PCA Response 1st Spot [1, 7]: 0 (0 if <0.05 cm) and 1 (1 if 0.05-0.2 cm) (2×) | PCA Response 2nd Spot [1, 7]: 0 (0 if <0.05 cm) and 1 (1 if 0.05-0.2 cm) (2×) | % Inhibition ([1]; 5 mg/kg, 5 mg/kg): 87% | Total PCA Response ([1]; 5 mg/kg): 4 | PCA Response 1st Spot [1, 8]: 0 (0 if <0.05 cm) (2×) and 1 (1 if 0.05-0.2 cm) | PCA Response 2nd Spot [1, 8]: 0 (0 if <0.05 cm) (2×) and 1 (1 if 0.05-0.2 cm) | % Inhibition ([1]; 10 mg/kg, 10 mg/kg): 93% | Total PCA Response ([1]; 10 mg/kg): 2 | PCA Response 1st Spot [1, 9]: 0 (0 if <0.05 cm) (2×) and 1 (1 if 0.05-0.2 cm) | PCA Response 2nd Spot [1, 9]: 0 (0 if <0.05 cm) (2×) and 1 (1 if 0.05-0.2 cm) | % Inhibition ([1]; 20 mg/kg, 20 mg/kg): 93% | Total PCA Response ([1]; 20 mg/kg): 2 | TI (therapeutic index=TC50/IC50) (HIV-1 strain WeJo): > 113 | IC50 (concentration that inhibited virus replication by 50%) (HIV-1 strain WeJo; p24): 0.71 µg/mL (≈ 0.368 µM) | CC50 [2]: > 80 µg/mL | cell viability at the highest concentration tested (in words) ([3]; 80 μg/ml): hardly affected | TC50 (concentration decreasing cell viability by 50%) [3, 10]: > 80 µg/mL | TI (therapeutic index=TC50/IC50) (HIV-1 strain Ba-L): > 12.3 | IC50 (concentration that inhibited virus replication by 50%) (HIV-1 strain Ba-L; p24): 6.5 µg/mL (≈ 3.37 µM) | CC50 [4]: > 80 µg/mL | decrease of cell viability at the highest concentration tested (monocyte/macrophages; 80 μg/ml): about 25% | TC50 (concentration decreasing cell viability by 50%) (monocyte/macrophages; [10]): > 80 µg/mL | activity in acute phase (in words) ([5]; IP, 2.5 mg/kg ×5 doses): moderate but non-significant activity | activity in late phase (in words) ([5]; IP, 2.5 mg/kg ×5 doses): no activity | anti-inflammatory activity in both acute and late phase (in words) ([5]; IP, 5 mg/kg once daily for 5 consecutive days): significant anti-inflammatory activity | anti-inflammatory activity in both acute and late phase (in words) ([5]; IP, 10 mg/kg single dose): significant anti-inflammatory activity | % Inhibition relative to Vehicle treated control, Days (1-5) ([5]; in vivo, ip, 2.5 mg/kg): 27% | % Inhibition relative to Vehicle treated control, Days (14-18) ([5]; in vivo, ip, 2.5 mg/kg): −11% | % Inhibition relative to Vehicle treated control, Days (1-5) ([5]; in vivo, ip, 5 mg/kg): 51* % | % Inhibition relative to Vehicle treated control, Days (14-18) ([5]; in vivo, ip, 5 mg/kg): 34* % | % Inhibition relative to Vehicle treated control, Days (1-5) ([5]; in vivo, ip, 10 mg/kg): 61* % | % Inhibition relative to Vehicle treated control, Days (14-18) ([5]; in vivo, ip, 10 mg/kg): 31* % | inhibition of phosphorylation activities of kinases involved in the cell cycle G2 checkpoint (in words) [6]: inhibits the phosphorylation activities | binding to 14-3-3 protein (in words) (14-3-3 protein): binds

C[C@]12CCC(=O)C=C1CC[C@@H]1[C@@H]2[C@@H](O)C[C@@]2(C)[C@H]1CC[C@]2(O)C(=O)CO [Hydrocortisone, hydrocortisone, reference compound]
activity in the acute phase (in words) ([5]; 30 mg/kg daily for 5 days): significant activity | activity in the late phase (in words) ([5]; 30 mg/kg daily for 5 days): near-significant activity | % Inhibition relative to Vehicle treated control, Days (14-18) ([5]; PO, 30 mg/kg per dose × 5 doses, left hind paw volume, late phase): 29% | % Inhibition relative to Vehicle treated control, Days (1-5) ([5]; PO, 30 mg/kg per dose × 5 doses, right hind paw volume, acute phase): 42* %
